Read-outs that look alike come from different tables or passages of the source.
Legend:
[1] = system: Isogenic HCT-116 colon cancer cell lines; experiment: cells; assay type: cell-based;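 note: cells grown in 96-well plates in McCoy's 5A medium with 10% FBS, exposed to compound for 4 days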
Method: Cells were seeded in 96-well flat bottom cell culture plates at a density of 2−3×10^3 cells/well with compounds and incubated for 4 days.

[2] = system: cancer cell lines with wild-type p53 / mutated or deleted p53 (ATCC); experiment: Cell growth assay (WST-8), other cancer cell lines; assay type: cell-based
[3] = target: recombinant human His-tagged MDM2 protein (residues 1-118) (Homo sapiens (Human), UniProt Q00987); experiment: Fluorescence-polarization MDM2 binding assay;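 note: fluorescence polarization read after three hours of incubation in potassium phosphate buffer containing bovine gamma globulin and Triton X-100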
Method: The assay was performed in the buffer: 100 mM potassium phosphate, pH 7.5; 100 μg/mL bovine gamma globulin; 0.02% sodium azide, 0.01% Triton X-100) and the polarization values were measured after 3 h of incubation using an ULTRA READER (Tecan U.S. Inc., Research Triangle Park, N.C.). […] The Kd value was calculated using the equation: Kd value=IC50−L0/2.
The polarization values were measured after 3 h of incubation. […] Curve fitting was performed using [sequence] PRISM software (GraphPad Software, Inc., San Diego, Calif.). […] Compounds shown in Tables 19A-D as the free base were tested either as the free base or as the CF3CO2H (TFA) or HCl salt.

[4] = In vitro microsomal stability, rat; assay type: in vitro ADME; conditions: for Microsomal stability, % remaining: Rat Microsome, same batch
[5] = In vitro microsomal stability, human; assay type: in vitro ADME; conditions: for Microsomal stability, % remaining: Human Microsome, same batch
[6] = Homo sapiens, HCT-116, read-out: Cell growth inhibition using WST assay, HCT116 p53KO IC50, Table 19C, HCT116 p53KO
[7] = Homo sapiens, HCT-116, read-out: Cell growth inhibition using WST assay, HCT116 p53WT IC50, Table 19C, HCT116 p53WT
[8] = Homo sapiens, LNCaP, Table 19C, LNCaP cells, read-out: Cell growth inhibition using WST assay, LNCaP IC50
[9] = Homo sapiens, PC-3, Table 19C, PC3 cells, read-out: Cell growth inhibition using WST assay, PC3 IC50
[10] = Table 19C, read-out: Bidning affinities to MDM2 as determined using FP assay IC50

recombinant human His-tagged MDM2 protein (residues 1-118), sequence (Q00987 1-118): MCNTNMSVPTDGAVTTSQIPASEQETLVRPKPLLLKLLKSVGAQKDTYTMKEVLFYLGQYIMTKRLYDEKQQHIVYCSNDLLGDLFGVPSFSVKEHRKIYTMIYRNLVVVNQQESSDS

**Q.** Which IC50 [1, 6] does the source give for `CC(C)(C)C[C@H]1N[C@@H](C(=O)NCC[C@H](O)CN)[C@H](c2cccc(Cl)c2)[C@@]12C(=O)Nc1cc(Cl)c(F)cc12` [MI-319-25] here?
**A.** > 10 µM

**Q.** What about the IC50 [1, 7] of the same compound?
**A.** < 5 µM

**Q.** And the IC50 [2, 8]?
**A.** < 5 µM

**Q.** And the IC50 [2, 9]?
**A.** > 10 µM

**Q.** What about the IC50 [3, 10] of the same compound?
**A.** < 1 µM

**Q.** For `CC(C)(C)C[C@H]1N[C@@H](C(=O)NCC[C@H](O)COC(=O)CC(=O)O)[C@H](c2ccc(F)c(Cl)c2)[C@@]12C(=O)Nc1cc(Cl)c(F)cc12` [MI-319-26], which IC50 [1, 6] is on record?
**A.** > 10 µM

**Q.** What about the IC50 [1, 7] of the same compound?
**A.** < 5 µM

**Q.** And the IC50 [2, 8]?
**A.** < 5 µM

**Q.** And the IC50 [2, 9]?
**A.** > 10 µM

**Q.** And the IC50 [3, 10]?
**A.** < 1 µM

**Q.** Which IC50 [1, 6] does the source give for `CCOP(=O)(OCC)OC[C@@H](O)CCNC(=O)[C@@H]1N[C@H](CC(C)(C)C)[C@]2(C(=O)Nc3cc(Cl)c(F)cc32)[C@H]1c1ccc(F)c(Cl)c1` [MI-319-27] here?
**A.** > 10 µM

**Q.** What about the IC50 [1, 7] of the same compound?
**A.** < 5 µM

**Q.** And the IC50 ([2]; Homo sapiens, LNCaP, read-out: Cell growth inhibition using WST assay, LNCaP IC50)?
**A.** < 5 µM

**Q.** And the IC50 ([2]; Homo sapiens, PC-3, read-out: Cell growth inhibition using WST assay, PC3 IC50)?
**A.** > 10 µM

**Q.** And the IC50 [3, 10]?
**A.** < 5 µM

**Q.** What does the source list for `CC(O)C(O)CCNC(=O)[C@@H]1N[C@H](CC(C)(C)C)[C@]2(C(=O)Nc3cc(Cl)c(F)cc32)[C@H]1c1cccc(Cl)c1` (stereo partly drawn) [MI-519-31]?
**A.** IC50 ([1]; read-out: HCT-116 (p53-/-) IC50, Table 19A, HCT-116 p53-/-, cell growth): 20.1 ± 2.5 µM; IC50 ([1]; read-out: HCT-116 (p53 wild-type) IC50, Table 19A, HCT-116 p53 wild-type, cell growth): 2 ± 0.8 µM; IC50 ([2]; Table 19A, LNCAP cells, p53 wild-type, cell growth, read-out: LNCAP (p53 wild-type) IC50): 1.3 ± 0.2 µM; IC50 ([2]; Table 19A, PC-3 cells, deleted p53, cell growth, read-out: PC-3 (deleted p53) IC50): 24.7 ± 2 µM; % of compound remaining when incubated in rat liver microsomes at indicated time (min) ([4]; 0 min): 100%; % of compound remaining when incubated in rat liver microsomes with NADPH ([4]; 0 min): 100.00%; % of compound remaining when incubated in rat liver microsomes at indicated time (min) ([4]; 4 min): 80.1%; % of compound remaining when incubated in rat liver microsomes with NADPH ([4]; 5 min): 80.22%; % of compound remaining when incubated in rat liver microsomes at indicated time (min) ([4]; 6 min): 69.4%; % of compound remaining when incubated in rat liver microsomes at indicated time (min) ([4]; 10 min): 54.3%; % of compound remaining when incubated in rat liver microsomes with NADPH ([4]; 10 min): 65.69%; % of compound remaining when incubated in rat liver microsomes at indicated time (min) ([4]; 15 min): 47.7%; % of compound remaining when incubated in rat liver microsomes with NADPH ([4]; 15 min): 57.57%; % of compound remaining when incubated in rat liver microsomes at indicated time (min) ([4]; 30 min): 31%; % of compound remaining when incubated in rat liver microsomes with NADPH ([4]; 30 min): 42.91%; % of compound remaining when incubated in rat liver microsomes with NADPH ([4]; 45 min): 34.31%; % of compound remaining when incubated in rat liver microsomes with NADPH ([4]; 60 min): 32.81%; Microsomal stability, % remaining ([4]; 0 min): 100.00%; Microsomal stability, % remaining ([4]; 5 min): 80.22%; Microsomal stability, % remaining ([4]; 10 min): 65.69%; Microsomal stability, % remaining ([4]; 15 min): 57.57%; Microsomal stability, % remaining ([4]; 30 min): 42.91%; Microsomal stability, % remaining ([4]; 45 min): 34.31%; Microsomal stability, % remaining ([4]; 60 min): 32.81%; % of compound remaining when incubated in rat liver microsomes with NADPH ([4]; rat liver microsomes, NADPH, 0 min): 100.00%; % of compound remaining when incubated in rat liver microsomes with NADPH ([4]; rat liver microsomes, NADPH, 5 min): 80.22%; % of compound remaining when incubated in rat liver microsomes with NADPH ([4]; rat liver microsomes, NADPH, 10 min): 65.69%; % of compound remaining when incubated in rat liver microsomes with NADPH ([4]; rat liver microsomes, NADPH, 15 min): 57.57%; % of compound remaining when incubated in rat liver microsomes with NADPH ([4]; rat liver microsomes, NADPH, 30 min): 42.91%; % of compound remaining when incubated in rat liver microsomes with NADPH ([4]; rat liver microsomes, NADPH, 45 min): 34.31%; % of compound remaining when incubated in rat liver microsomes with NADPH ([4]; rat liver microsomes, NADPH, 60 min): 32.81%; half-life ([4]; rat, liver microsomes, rat liver microsomes with NADPH): 18.7 min; % of compound remaining when incubated in human liver microsomes with NADPH ([5]; 0 min): 100.00%; % of compound remaining when incubated in human liver microsomes with NADPH ([5]; 5 min): 78.11%; % of compound remaining when incubated in human liver microsomes with NADPH ([5]; 10 min): 58.15%; % of compound remaining when incubated in human liver microsomes with NADPH ([5]; 15 min): 45.42%; % of compound remaining when incubated in human liver microsomes with NADPH ([5]; 30 min): 22.75%; % of compound remaining when incubated in human liver microsomes with NADPH ([5]; 45 min): 13.25%; % of compound remaining when incubated in human liver microsomes with NADPH ([5]; 60 min): 8.56%; Microsomal stability, % remaining ([5]; 0 min): 100.00%; Microsomal stability, % remaining ([5]; 5 min): 78.11%; Microsomal stability, % remaining ([5]; 10 min): 58.15%; Microsomal stability, % remaining ([5]; 15 min): 45.42%; Microsomal stability, % remaining ([5]; 30 min): 22.75%; Microsomal stability, % remaining ([5]; 45 min): 13.25%; Microsomal stability, % remaining ([5]; 60 min): 8.56%; % of compound remaining when incubated in human liver microsomes with NADPH ([5]; human liver microsomes, NADPH, 0 min): 100.00%; % of compound remaining when incubated in human liver microsomes with NADPH ([5]; human liver microsomes, NADPH, 5 min): 78.11%; % of compound remaining when incubated in human liver microsomes with NADPH ([5]; human liver microsomes, NADPH, 10 min): 58.15%; % of compound remaining when incubated in human liver microsomes with NADPH ([5]; human liver microsomes, NADPH, 15 min): 45.42%; % of compound remaining when incubated in human liver microsomes with NADPH ([5]; human liver microsomes, NADPH, 30 min): 22.75%; % of compound remaining when incubated in human liver microsomes with NADPH ([5]; human liver microsomes, NADPH, 45 min): 13.25%; % of compound remaining when incubated in human liver microsomes with NADPH ([5]; human liver microsomes, NADPH, 60 min): 8.56%; half-life ([5]; human, liver microsomes, human liver microsomes with NADPH): 13 min

**Q.** What does the source list for `CC(C)(C)C[C@H]1N[C@@H](C(=O)NC2CC(O)C2)[C@H](c2cccc(Cl)c2F)[C@@]12C(=O)Nc1cc(Cl)ccc12` (stereo partly drawn) [MI-519-60]?
**A.** IC50 ([1]; Homo sapiens, HCT-116, read-out: HCT-116 (p53 wild-type) IC50): < 3 µM; cell growth inhibition (in words) [2]: more potent than its epimer MI-519-63; IC50 ([2]; Homo sapiens, LNCaP, read-out: LNCAP (p53 wild-type) IC50): < 3 µM; IC50 ([2]; Homo sapiens, SJSA-1, read-out: SJSA-1 (p53 wild-type) IC50): < 3 µM; % of compound remaining when incubated in rat liver microsomes with NADPH ([4]; 0 min): 100%; % of compound remaining when incubated in rat liver microsomes with NADPH ([4]; 5 min): 79.93%; % of compound remaining when incubated in rat liver microsomes with NADPH ([4]; 10 min): 63.72%; % of compound remaining when incubated in rat liver microsomes with NADPH ([4]; 15 min): 51.52%; % of compound remaining when incubated in rat liver microsomes with NADPH ([4]; 30 min): 40.6%; % of compound remaining when incubated in rat liver microsomes with NADPH ([4]; 45 min): 35.16%; % of compound remaining when incubated in rat liver microsomes with NADPH ([4]; 60 min): 29.15%; % of compound remaining when incubated in human liver microsomes with NADPH ([5]; 0 min): 100%; % of compound remaining when incubated in human liver microsomes with NADPH ([5]; 5 min): 83.26%; % of compound remaining when incubated in human liver microsomes with NADPH ([5]; 10 min): 68.14%; % of compound remaining when incubated in human liver microsomes with NADPH ([5]; 15 min): 51.54%; % of compound remaining when incubated in human liver microsomes with NADPH ([5]; 30 min): 49.28%; % of compound remaining when incubated in human liver microsomes with NADPH ([5]; 45 min): 40.97%; % of compound remaining when incubated in human liver microsomes with NADPH ([5]; 60 min): 37.55%

**Q.** Which IC50 ([3]; Table 19D, read-out: MDM2 Binding Affinities IC50) does the source give for `CC(C)(C)C[C@H]1N[C@@H](C(=O)NC2CN(CC(F)F)C2)[C@H](c2cccc(Cl)c2F)[C@@]12C(=O)Nc1cc(Cl)ccc12` [MI-519-72] here?
**A.** < 1 µM

**Q.** With `CC(C)(C)C[C@H]1N[C@@H](C(=O)NC2CCN(S(=O)(=O)C(F)(F)F)CC2)[C@H](c2cccc(Cl)c2F)[C@@]12C(=O)Nc1cc(Cl)ccc12` [MI-780] as the compound, how does the IC50 ([2]; Homo sapiens, SJSA-1, Table 19A, SJSA-1 cells, p53 wild-type, cell growth, read-out: SJSA-1 (p53 wild-type) IC50) read?
**A.** < 5 µM

**Q.** And the IC50 ([3]; Table 19A, FP binding assay, read-out: MDM2 IC50)?
**A.** < 3 µM

Reference: US9079913B2, “Spiro-oxindole MDM2 antagonists” (The Regents of the University of Michigan, priority 2009, dated 2015)
